Format in all cases: functional, cell-based
The nature of test [1]: Cytotoxicity against human EC109 cells assessed as inhibition of proliferation after 72 hrs by MTT assay. The conditions noted are these: ECa-109, 72 h. On the technique in general: Tetrazolium assays rely on reduction of a dye to a coloured formazan, in cell work by metabolically active cells.
Another test has as its system MCF7. The test can be described thus: Cytotoxicity against human MCF7 cells assessed as inhibition of proliferation after 72 hrs by MTT assay. The note with it: MCF7, 72 h.
A further test deals with MGC-803. The test can be described thus: Cytotoxicity against human MGC803 cells assessed as inhibition of proliferation after 72 hrs by MTT assay. The note with it: MGC-803, 72 h.
Test [2] can be described thus: Cytotoxicity against mouse B16F10 cells assessed as inhibition of proliferation after 72 hrs by MTT assay. The note with it: B16-F10, 72 h.

The structures appear in SMILES notation. pIC50: −log10 of the molar value. A value given as a limit tells only on which side of the number the result lay.

Regarding `COc1ccc(Nc2nc(SCc3cn(Cc4ccccc4Cl)nn3)nc(-c3ccc(C(C)C)cc3)c2C#N)cc1`, the pIC50 (commonly −log10 of the IC50, conventionally taken in molar units) was 5.45 in test [1], 4.99 with MCF7, under 4.19 in the test with MGC-803 and 5.57 in test [2].

`O=c1[nH]cc(F)c(=O)[nH]1` [FLUOROURACIL]: the pIC50 in test [1] is 4.97; with MCF7, 5.05; in the test on MGC-803 it was 5.11; in test [2], 6.06.

The values are drawn from ChEMBL document CHEMBL3351956, “Design and synthesis of novel 1,2,3-triazole-pyrimidine hybrids as potential anticancer agents” (Eur J Med Chem, 2014).
